Laboratory results: patent publication US9220264B2, “Multimeric forms of antimicrobial peptides” (Singapore Health Services Pte Ltd., priority 2008, dated 2015)
Converted amounts (≈) assume the structure as drawn. Bridge positions count the residues as written; N and C are the ends. Peptide text beside a SMILES is read from it. I, II: the chains in the order shown.

What was measured:
[1] = test system: Clinical Escherichia coli DB16027 Source: Blood; assay type: cell-based; settings: Clinical DB16027 Source: Blood
Procedure: (§1) MICs was determined by broth macrodilution method modified from that described by the National Committee for Clinical Laboratory Standards (NCCL). The Mueller Hinton Broth (MHB) at ⅙ strength and without addition of Ca^2+ and Mg^2+ was used for dilution. Serial twofold dilutions of V2 dimer solution was prepared in MHB (⅙ strength) in test tubes. 1 ml of inoculum of test organisms in MHB (⅙ strength) was added to 1 ml of each dilution of V2 dimer to yield as final concentration of 10^4 to 10^5 colony forming units/ml in each test tube. The tubes were incubated at 35° C. for 16 to 20 hours. A positive control containing only the broth and organism, and a negative control tube containing only the broth were also incubated in parallel to the test samples. The above was repeated for each different test organism in separate experiments. The MIC of V2 dimer peptide for each clinical isolate or reference organism was read as the lowest concentration of peptide that inhibited visible growth of the test organism.
(§2) The MIC was also determined for other peptides and compared to gentamicin.

[2] = test system: Clinical Pseudomonas aeruginosa PAE 240 DU14476/07 Source: Urine; assay type: cell-based; settings: Clinical PAE 240 DU14476/07 Source: Urine
Procedure: as §1, §2

[3] = test system: Candida albicans ATCC10231; assay type: cell-based
Procedure: as §1, §2

[4] = test system: Clinical Pseudomonas aeruginosa DM 023155 Source: Eye; assay type: cell-based; settings: Clinical DM 023155 Source: Eye
Procedure: as §1, §2

[5] = test system: Clinical Pseudomonas aeruginosa PAE 230 DR4877/07 Source: Sputum; assay type: cell-based; settings: Clinical PAE 230 DR4877/07 Source: Sputum
Procedure: as §1, §2

[6] = test system: Clinical Escherichia coli DU46381R Source: Urine; assay type: cell-based
Procedure: as §1, §2

[7] = test system: Clinical Pseudomonas aeruginosa 07DM 023257 Source: Eye; assay type: cell-based; settings: Clinical 07DM 023257 Source: Eye
Procedure: as §1, §2

[8] = test system: Escherichia coli ATCC25922; assay type: cell-based
Procedure: as §1, §2

[9] = test system: Clinical Staphylococcus aureus DM4001 Source: Eye; assay type: cell-based
Procedure: as §1, §2

[10] = test system: Clinical Pseudomonas aeruginosa PAE 249 DM15013 Source: Wound; assay type: cell-based; settings: Clinical PAE 249 DM15013 Source: Wound
Procedure: as §1, §2

[11] = test system: Fusarium solani ATCC 36031; assay type: cell-based
Procedure: as §1, §2

[12] = test system: Clinical Pseudomonas aeruginosa PAE 239 DM5790/07 Source: Wound; assay type: cell-based; settings: Clinical PAE 239 DM5790/07 Source: Wound
Procedure: as §1, §2

[13] = test system: Clinical Pseudomonas aeruginosa DM 023104 Source: Eye; assay type: cell-based; settings: Clinical DM 023104 Source: Eye
Procedure: as §1, §2

[14] = test system: Clinical Pseudomonas aeruginosa 07DM023376 Source: Eye; assay type: cell-based; settings: Clinical 07DM023376 Source: Eye
Procedure: as §1, §2

[15] = test system: Clinical Cadida albicans DF2672R Source: Urine; assay type: cell-based, Candida albicans
Procedure: as §1, §2

MIC [1]	MIC [2]	MIC [3]	MIC [4]	MIC [5]	MIC [6]	MIC [7]	MIC [8]	MIC [9]	MIC [10]	MIC [11]	MIC [12]	MIC [13]	MIC [14]	MIC [15]	Compound
>50 µg/mL	25 µg/mL (≈ 24.4 µM)	>50 µg/mL	>50 µg/mL	>50 µg/mL	50 µg/mL (≈ 48.7 µM)	>50 µg/mL	>50 µg/mL	>50 µg/mL	>50 µg/mL	>100 µg/mL	>50 µg/mL	>50 µg/mL	>50 µg/mL	>50 µg/mL	CC(C)[C@H](NC(=O)[C@H](CCCCN)NC(=O)[C@H](CCCNC(=N)N)NC(=O)CNC(=O)[C@@H](N)CCCNC(=N)N)C(=O)N[C@H](C(=O)N[C@@H](CCCNC(=N)N)C(=O)N[C@@H](CCCNC(=N)N)C(=O)O)C(C)C [V2-8AA, RGRKVVRR] (H-RGRKVVRR-OH; N-terminus and C-terminus assumed)
6.25 µg/mL (≈ 1.37 µM)	6.25 µg/mL (≈ 1.37 µM)	12.5 µg/mL (≈ 2.74 µM)	6.25 µg/mL (≈ 1.37 µM)	12.5 µg/mL (≈ 2.74 µM)	6.25 µg/mL (≈ 1.37 µM)	12.5 µg/mL (≈ 2.74 µM)	12.5 µg/mL (≈ 2.74 µM)	12.5 µg/mL (≈ 2.74 µM)	6.25 µg/mL (≈ 1.37 µM)	3.125 µg/mL (≈ 0.685 µM)	12.5 µg/mL (≈ 2.74 µM)	6.25 µg/mL (≈ 1.37 µM)	6.25 µg/mL (≈ 1.37 µM)	12.5 µg/mL (≈ 2.74 µM)	CC(C)[C@H](NC(=O)[C@H](CCCCN)NC(=O)[C@H](CCCNC(=N)N)NC(=O)CNC(=O)[C@@H](N)CCCNC(=N)N)C(=O)N[C@H](C(=O)N[C@@H](CCCNC(=N)N)C(=O)N[C@@H](CCCNC(=N)N)C(=O)NCCCC[C@H](NC(=O)[C@H](CCCNC(=N)N)NC(=O)[C@H](CCCNC(=N)N)NC(=O)[C@@H](NC(=O)[C@@H](NC(=O)[C@H](CCCCN)NC(=O)[C@H](CCCNC(=N)N)NC(=O)CNC(=O)[C@@H](N)CCCNC(=N)N)C(C)C)C(C)C)C(=O)NCCCC[C@H](NC(=O)[C@H](CCCCNC(=O)[C@H](CCCNC(=N)N)NC(=O)[C@H](CCCNC(=N)N)NC(=O)[C@@H](NC(=O)[C@@H](NC(=O)[C@H](CCCCN)NC(=O)[C@H](CCCNC(=N)N)NC(=O)CNC(=O)[C@@H](N)CCCNC(=N)N)C(C)C)C(C)C)NC(=O)[C@H](CCCNC(=N)N)NC(=O)[C@H](CCCNC(=N)N)NC(=O)[C@@H](NC(=O)[C@@H](NC(=O)[C@H](CCCCN)NC(=O)[C@H](CCCNC(=N)N)NC(=O)CNC(=O)[C@@H](N)CCCNC(=N)N)C(C)C)C(C)C)C(=O)N[C@@H](CCCCN)C(=O)O)C(C)C [V2-tetramer] (I: H-RGRKVVRRKKK-OH / II: H-RGRKVVRRK / III: H-RGRKVVRR / IV: H-RGRKVVRR; amide I:9-IV:C, I:10-II:C, II:9-III:C; N-terminus assumed)
>50 µg/mL	>50 µg/mL	25 µg/mL (≈ 20.4 µM)	>50 µg/mL	>50 µg/mL	>50 µg/mL	>50 µg/mL	>50 µg/mL	>50 µg/mL	>50 µg/mL	>100 µg/mL	>50 µg/mL	>50 µg/mL	>50 µg/mL	>50 µg/mL	CC(C)[C@H](NC(=O)[C@@H](NC(=O)[C@H](CCCNC(=N)N)NC(=O)[C@H](CCCNC(=N)N)NC(=O)[C@@H](NC(=O)[C@@H](NC(=O)[C@H](CCCCN)NC(=O)[C@H](CCCNC(=N)N)NC(=O)CNC(=O)[C@@H](N)CCCNC(=N)N)C(C)C)C(C)C)C(C)C)C(=O)O [V4 monomer, RGRKVVRRVV] (H-RGRKVVRRVV-OH; N-terminus and C-terminus assumed)
6.25 µg/mL (≈ 5.21 µM)	12.5 µg/mL (≈ 10.4 µM)	12.5 µg/mL (≈ 10.4 µM)	50 µg/mL (≈ 41.7 µM)	>50 µg/mL	6.25 µg/mL (≈ 5.21 µM)	>50 µg/mL	12.5 µg/mL (≈ 10.4 µM)	12.5 µg/mL (≈ 10.4 µM)	50 µg/mL (≈ 41.7 µM)	25 µg/mL (≈ 20.8 µM)	>50 µg/mL	25 µg/mL (≈ 20.8 µM)	25 µg/mL (≈ 20.8 µM)	12.5 µg/mL (≈ 10.4 µM)	N=C(N)NCCC[C@H](NC(=O)[C@H](CCCNC(=N)N)NC(=O)[C@H](Cc1c[nH]c2ccccc12)NC(=O)[C@H](Cc1c[nH]c2ccccc12)NC(=O)[C@H](CCCCN)NC(=O)[C@H](CCCNC(=N)N)NC(=O)CNC(=O)[C@@H](N)CCCNC(=N)N)C(=O)O [W2-8AA, RGRKWWRR] (H-RGRKWWRR-OH; N-terminus and C-terminus assumed)
12.5 µg/mL (≈ 4.74 µM)	12.5 µg/mL (≈ 4.74 µM)	12.5 µg/mL (≈ 4.74 µM)	12.5 µg/mL (≈ 4.74 µM)	12.5 µg/mL (≈ 4.74 µM)	6.25 µg/mL (≈ 2.37 µM)	12.5 µg/mL (≈ 4.74 µM)	25 µg/mL (≈ 9.47 µM)	12.5 µg/mL (≈ 4.74 µM)	6.25 µg/mL (≈ 2.37 µM)	12.5 µg/mL (≈ 4.74 µM)	12.5 µg/mL (≈ 4.74 µM)	12.5 µg/mL (≈ 4.74 µM)	25 µg/mL (≈ 9.47 µM)	12.5 µg/mL (≈ 4.74 µM)	N=C(N)NCCC[C@H](NC(=O)CNC(=O)[C@@H](N)CCCNC(=N)N)C(=O)N[C@@H](CCCCN)C(=O)N[C@@H](Cc1c[nH]c2ccccc12)C(=O)N[C@@H](Cc1c[nH]c2ccccc12)C(=O)N[C@@H](CCCNC(=N)N)C(=O)N[C@@H](CCCNC(=N)N)C(=O)NCCCC[C@H](NC(=O)[C@H](CCCNC(=N)N)NC(=O)[C@H](CCCNC(=N)N)NC(=O)[C@H](Cc1c[nH]c2ccccc12)NC(=O)[C@H](Cc1c[nH]c2ccccc12)NC(=O)[C@H](CCCCN)NC(=O)[C@H](CCCNC(=N)N)NC(=O)CNC(=O)[C@@H](N)CCCNC(=N)N)C(=O)N[C@@H](CCCCN)C(=O)O [W2-dimer] (I: H-RGRKWWRRKK-OH / II: H-RGRKWWRR; amide I:9-II:C; N-terminus assumed)
25 µg/mL (≈ 21.7 µM)	6.25 µg/mL (≈ 5.41 µM)	25 µg/mL (≈ 21.7 µM)	>50 µg/mL	>50 µg/mL	25 µg/mL (≈ 21.7 µM)	>50 µg/mL	25 µg/mL (≈ 21.7 µM)	>50 µg/mL	>50 µg/mL	50 µg/mL (≈ 43.3 µM)	>50 µg/mL	>50 µg/mL	50 µg/mL (≈ 43.3 µM)	50 µg/mL (≈ 43.3 µM)	N=C(N)NCCC[C@H](NC(=O)[C@H](CCCNC(=N)N)NC(=O)[C@H](Cc1ccc(O)cc1)NC(=O)[C@H](Cc1ccc(O)cc1)NC(=O)[C@H](CCCCN)NC(=O)[C@H](CCCNC(=N)N)NC(=O)CNC(=O)[C@@H](N)CCCNC(=N)N)C(=O)O [Y2-8AA, RGRKYYRR] (H-RGRKYYRR-OH; N-terminus and C-terminus assumed)
